Laboratory results published in ChEMBL document CHEMBL1127869, “Angiotensin II receptor antagonists: imidazoles and pyrroles bearing hydroxymethyl and carboxy substituents” (Bioorg Med Chem Lett, 1994).

Experiments:
[1] = target: T1, Type-1 angiotensin II receptor (Bos taurus, UniProt P25104); experiment: Inhibition of [125l]-All binding to bovine adrenal cortex; assay type: tissue-based
T1 sequence (P25104 whole entry): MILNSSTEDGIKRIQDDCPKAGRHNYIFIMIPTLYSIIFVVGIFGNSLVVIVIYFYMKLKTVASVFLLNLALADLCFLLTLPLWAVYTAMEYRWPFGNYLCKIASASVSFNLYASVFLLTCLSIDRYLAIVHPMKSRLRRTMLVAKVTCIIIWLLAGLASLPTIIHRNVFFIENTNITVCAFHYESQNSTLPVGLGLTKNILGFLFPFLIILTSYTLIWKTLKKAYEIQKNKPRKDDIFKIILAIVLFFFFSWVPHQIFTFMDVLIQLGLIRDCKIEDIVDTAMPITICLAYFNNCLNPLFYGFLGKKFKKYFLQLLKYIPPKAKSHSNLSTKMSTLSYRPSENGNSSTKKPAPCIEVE

[2] = system: Rattus norvegicus; experiment: Compound tested for in vivo inhibitory dose against All-induced pressor response in normotensive, conscious rats; assay type: functional; conditions: read-out: ID50 (the source's name)

SMILES | IC50 [1] | ED50 [2]
CCCCc1nc(Cl)c(CO)n1Cc1ccc(-c2ccccc2C(=O)O)cc1 | 490 nM | 2.3 mg/kg
CCCCc1nc(CO)c(C(=O)O)n1Cc1ccc(-c2ccccc2C(=O)O)cc1 | 65 nM | 0.22 mg/kg
CCCc1nc(C(=O)O)c(C(=O)O)n1Cc1ccc(-c2ccccc2C(=O)O)cc1 | 320 nM | 0.67 mg/kg
CCCc1nc(CO)c(C(=O)O)n1Cc1ccc(-c2ccccc2C(=O)O)cc1 | 58 nM | 0.069 mg/kg
CCCc1nc(CO)c(C(=O)OCC)n1Cc1ccc(-c2ccccc2C(=O)O)cc1 | 840 nM | 1.5 mg/kg
CCCCc1nc(Cl)c(C(=O)O)n1Cc1ccc(-c2ccccc2C(=O)O)cc1 |  | 0.21 mg/kg
CCc1nc(CO)c(C(=O)O)n1Cc1ccc(-c2ccccc2C(=O)O)cc1 | 150 nM | 0.27 mg/kg
CCCc1cc(COC)c(C(=O)O)n1Cc1ccc(-c2ccccc2C(=O)O)cc1 | 4500 nM | 4.2 mg/kg
CCCc1nc(CO)c(CO)n1Cc1ccc(-c2ccccc2C(=O)O)cc1 | 2700 nM | 2.1 mg/kg
CCCc1nc(C(=O)O)c(CO)n1Cc1ccc(-c2ccccc2C(=O)O)cc1 |  | 8.8 mg/kg
CCCc1cc(C(=O)O)c(CO)n1Cc1ccc(-c2ccccc2C(=O)O)cc1 | 2100 nM | 5.9 mg/kg
CCCCc1nc(Cl)c(C(=O)O)n1Cc1ccc(-c2ccccc2-c2nn[nH]n2)cc1 [CARBOXYLIC ACID METABOLITE] | 22 nM | 0.1 mg/kg
CCCCc1nc(Cl)c(CO)n1Cc1ccc(-c2ccccc2-c2nnn[nH]2)cc1 [LOSARTAN] | 120 nM | 0.3 mg/kg
